{"source": "ChEMBL document CHEMBL4308841", "about": "“Synthesis, in vitro antiproliferative activity, and kinase inhibitory effects of pyrazole-containing diarylureas and diarylamides” (Eur J Med Chem, 2018)", "test_system": "TK-10", "assay": "Growth inhibition of human TK10 cells assessed as cell growth at 10 uM incubated for 48 hrs by sulforhodamine B assay relative to control", "assay_type": "functional", "details": "TK-10, 48 h, read-out: Activity"}
{"smiles": "COc1cc(Cl)cc(-c2nn(-c3cccc(NC(=O)c4ccc(Cl)c(Cl)c4)c3)cc2-c2ccncc2)c1", "values": [{"measurement": "growth at 10 µM", "value": 104, "unit": "%"}]}
